Source: PubChem BioAssay AID1963861 (Molecular Pharmacology Branch, DTP, NCI, 2024)

System: 885724-159-R-J1-PDC KRAS PDC multicell spheroid viability
Experiment: Anticancer human tumor 885724-159-R-J1-PDC patient-derived pancreatic adenocarcinoma cell line growth inhibition [KRAS2]
Conditions: for IC50: curve of first compound; for viability, T/C: stronger effect = lower value
Outline: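 KRAS-mutant tumor cells were grown as spheroids with HUVEC endothelial cells and human MSCs as stroma. Targeted agents were tested alone and with KRAS pathway inhibitors. Doses started at or near clinical Cmax, or 10 microM, descending half-log.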

[1] = second compound 0.1 µM, first compound 0.0316 µM
[2] = second compound 0.1 µM, first compound 0.1 µM
[3] = second compound 0.1 µM, first compound 0.316 µM
[4] = second compound 0.1 µM, first compound 1 µM
[5] = second compound 0.1 µM, first compound 3.16 µM
[6] = second compound 0.1 µM, first compound 10 µM
[7] = second compound 0.316 µM, first compound 0.0316 µM
[8] = second compound 0.316 µM, first compound 0.1 µM
[9] = second compound 0.316 µM, first compound 0.316 µM
[10] = second compound 0.316 µM, first compound 1 µM
[11] = second compound 0.316 µM, first compound 3.16 µM
[12] = second compound 0.316 µM, first compound 10 µM
[13] = second compound 1 µM, first compound 0.0316 µM
[14] = second compound 1 µM, first compound 0.1 µM
[15] = second compound 1 µM, first compound 0.316 µM
[16] = second compound 1 µM, first compound 1 µM
[17] = second compound 1 µM, first compound 3.16 µM
[18] = second compound 1 µM, first compound 10 µM
[19] = second compound 3.16 µM, first compound 0.0316 µM
[20] = second compound 3.16 µM, first compound 0.1 µM
[21] = second compound 3.16 µM, first compound 0.316 µM
[22] = second compound 3.16 µM, first compound 1 µM
[23] = second compound 3.16 µM, first compound 3.16 µM
[24] = second compound 3.16 µM, first compound 10 µM
[25] = second compound 10 µM, first compound 0.0316 µM
[26] = second compound 10 µM, first compound 0.1 µM
[27] = second compound 10 µM, first compound 0.316 µM
[28] = second compound 10 µM, first compound 1 µM
[29] = second compound 10 µM, first compound 3.16 µM
[30] = second compound 10 µM, first compound 10 µM
[31] = second compound 0.1 µM, first compound 0.000316 µM
[32] = second compound 0.1 µM, first compound 0.001 µM
[33] = second compound 0.1 µM, first compound 0.00316 µM
[34] = second compound 0.1 µM, first compound 0.01 µM
[35] = second compound 0.316 µM, first compound 0.000316 µM
[36] = second compound 0.316 µM, first compound 0.001 µM
[37] = second compound 0.316 µM, first compound 0.00316 µM
[38] = second compound 0.316 µM, first compound 0.01 µM
[39] = second compound 1 µM, first compound 0.000316 µM
[40] = second compound 1 µM, first compound 0.001 µM
[41] = second compound 1 µM, first compound 0.00316 µM
[42] = second compound 1 µM, first compound 0.01 µM
[43] = second compound 3.16 µM, first compound 0.000316 µM
[44] = second compound 3.16 µM, first compound 0.001 µM
[45] = second compound 3.16 µM, first compound 0.00316 µM
[46] = second compound 3.16 µM, first compound 0.01 µM
[47] = second compound 10 µM, first compound 0.000316 µM
[48] = second compound 10 µM, first compound 0.001 µM
[49] = second compound 10 µM, first compound 0.00316 µM
[50] = second compound 10 µM, first compound 0.01 µM
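Note: spheroids exposed to agents for 7 days before readout.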

| SMILES | IC50 (second compound 0.1 µM) [nM] | IC50 (second compound 0.316 µM) [nM] | IC50 (second compound 1 µM) [nM] | IC50 (second compound 3.16 µM) [nM] | IC50 (second compound 10 µM) [nM] | viability, T/C [1] [%] | viability, T/C [2] [%] | viability, T/C [3] [%] | viability, T/C [4] [%] | viability, T/C [5] [%] | viability, T/C [6] [%] | viability, T/C [7] [%] | viability, T/C [8] [%] | viability, T/C [9] [%] | viability, T/C [13] [%] | viability, T/C [14] [%] | viability, T/C [19] [%] | viability, T/C [20] [%] | viability, T/C [25] [%] | viability, T/C [26] [%] | other results |
| --- | --- | --- | --- | --- | --- | --- | --- | --- | --- | --- | --- | --- | --- | --- | --- | --- | --- | --- | --- | --- | --- |
| CC(C)NCC(C(=O)N1CCN(c2ncnc3c2C(C)CC3O)CC1)c1ccc(Cl)cc1 (stereo not given) + CC1OCC2(CCN(c3cnc(Sc4ccnc(N)c4Cl)c(N)n3)CC2)C1N | 8340 | 5810 | 2210 | 524 | 100 | 77.6 | 72.6 | 64.5 | 65.5 | 63.8 | 45.9 | 72.5 | 60.3 | 58.9 | 67.8 | 62.1 | 57.1 | 55.6 | 56.4 | 49.6 | viability, T/C [10]: 61.5%; viability, T/C [11]: 59.7%; viability, T/C [12]: 42.7%; viability, T/C [15]: 55%; viability, T/C [16]: 51.4%; viability, T/C [17]: 54.4%; viability, T/C [18]: 41.7%; viability, T/C [21]: 46.2%; viability, T/C [22]: 47.5%; viability, T/C [23]: 46.5%; viability, T/C [24]: 32.2%; viability, T/C [27]: 42.4%; viability, T/C [28]: 37%; viability, T/C [29]: 36.2%; viability, T/C [30]: 21.8% |
| CC(C)n1nc(-c2ccc3oc(N)nc3c2)c2c(N)ncnc21 + CC1OCC2(CCN(c3cnc(Sc4ccnc(N)c4Cl)c(N)n3)CC2)C1N | 63.3 | 49.8 | 33 | 12 | 13.1 | 53.5 | 46.8 |  |  |  |  | 55.7 | 44.8 |  | 53.4 | 43.5 | 45.5 | 47.3 | 44.1 | 39.6 | viability, T/C [31]: 90.5%; viability, T/C [32]: 79%; viability, T/C [33]: 69.8%; viability, T/C [34]: 64.8%; viability, T/C [35]: 86.5%; viability, T/C [36]: 75.7%; viability, T/C [37]: 65%; viability, T/C [38]: 58.6%; viability, T/C [39]: 76.2%; viability, T/C [40]: 69.1%; viability, T/C [41]: 63.2%; viability, T/C [42]: 53.6%; viability, T/C [43]: 77.7%; viability, T/C [44]: 79.3%; viability, T/C [45]: 61.5%; viability, T/C [46]: 53.3%; viability, T/C [47]: 72.6%; viability, T/C [48]: 70%; viability, T/C [49]: 63.2%; viability, T/C [50]: 51.5% |
| CC1(C)CCC(CN2CCN(c3ccc(C(=O)NS(=O)(=O)c4ccc(NCC5CCOCC5)c([N+](=O)[O-])c4)c(Oc4cnc5[nH]ccc5c4)c3)CC2)=C(c2ccc(Cl)cc2)C1 + CC1OCC2(CCN(c3cnc(Sc4ccnc(N)c4Cl)c(N)n3)CC2)C1N | 4310 | 3450 | 2850 | 1620 | 1210 | 88 | 88.3 | 89 | 74.8 | 58.2 | 29.7 | 82.3 | 83.8 | 75.4 | 77.8 | 75.2 | 64.1 | 63.7 | 58 | 58.3 | viability, T/C [10]: 74.2%; viability, T/C [11]: 51.7%; viability, T/C [12]: 22.1%; viability, T/C [15]: 68.5%; viability, T/C [16]: 62.2%; viability, T/C [17]: 51.1%; viability, T/C [18]: 17.6%; viability, T/C [21]: 63.2%; viability, T/C [22]: 57.4%; viability, T/C [23]: 39.7%; viability, T/C [24]: 12%; viability, T/C [27]: 60.5%; viability, T/C [28]: 53.5%; viability, T/C [29]: 30.4%; viability, T/C [30]: 3.18% |
| COc1cc(Nc2ncc3c(n2)-c2ccc(Cl)cc2C(c2c(F)cccc2OC)=NC3)ccc1C(=O)O + CC1OCC2(CCN(c3cnc(Sc4ccnc(N)c4Cl)c(N)n3)CC2)C1N | > 10000 | > 10000 | > 10000 | > 10000 | > 10000 | 104 | 91.3 | 92.4 | 96.7 | 99 | 103 | 95.1 | 90.7 | 85.8 | 90 | 88.8 | 81.7 | 82.2 | 76.5 | 69.3 | viability, T/C [10]: 84.1%; viability, T/C [11]: 91.2%; viability, T/C [12]: 93.5%; viability, T/C [15]: 78%; viability, T/C [16]: 79.6%; viability, T/C [17]: 79.4%; viability, T/C [18]: 87.7%; viability, T/C [21]: 76.4%; viability, T/C [22]: 73.8%; viability, T/C [23]: 75.2%; viability, T/C [24]: 80.3%; viability, T/C [27]: 70.6%; viability, T/C [28]: 67.7%; viability, T/C [29]: 70.9%; viability, T/C [30]: 70.9% |
| COc1cc2nccc(Oc3ccc(NC(=O)C4(C(=O)Nc5ccc(F)cc5)CC4)cc3)c2cc1OC + CC1OCC2(CCN(c3cnc(Sc4ccnc(N)c4Cl)c(N)n3)CC2)C1N | > 10000 | > 10000 | 3120 | 2980 | 2210 | 87.1 | 87.9 | 87.9 | 82.7 | 59.1 | 63 | 84.7 | 79.9 | 83.7 | 74.3 | 71.2 | 75.5 | 82.8 | 71.4 | 62.9 | viability, T/C [10]: 84.7%; viability, T/C [11]: 60.5%; viability, T/C [12]: 51.1%; viability, T/C [15]: 76.2%; viability, T/C [16]: 72.5%; viability, T/C [17]: 49.1%; viability, T/C [18]: 50.3%; viability, T/C [21]: 72.1%; viability, T/C [22]: 67.7%; viability, T/C [23]: 45.8%; viability, T/C [24]: 52.3%; viability, T/C [27]: 67.4%; viability, T/C [28]: 63.3%; viability, T/C [29]: 44%; viability, T/C [30]: 39.4% |
| Cn1ncnc1[C@H]1c2n[nH]c(=O)c3cc(F)cc(c23)N[C@@H]1c1ccc(F)cc1 + CC1OCC2(CCN(c3cnc(Sc4ccnc(N)c4Cl)c(N)n3)CC2)C1N | > 100 | > 100 | > 100 | > 100 | > 100 | 78.5 | 78.7 |  |  |  |  | 71.8 | 69.7 |  | 69.2 | 73.6 | 62.5 | 58.8 | 61.7 | 61.4 | viability, T/C [31]: 84.8%; viability, T/C [32]: 86.1%; viability, T/C [33]: 85.2%; viability, T/C [34]: 87.9%; viability, T/C [35]: 76.4%; viability, T/C [36]: 78%; viability, T/C [37]: 78.2%; viability, T/C [38]: 79.1%; viability, T/C [39]: 78.6%; viability, T/C [40]: 74.5%; viability, T/C [41]: 71.4%; viability, T/C [42]: 68.5%; viability, T/C [43]: 70.1%; viability, T/C [44]: 72.6%; viability, T/C [45]: 69.8%; viability, T/C [46]: 67%; viability, T/C [47]: 62.7%; viability, T/C [48]: 65.5%; viability, T/C [49]: 64.8%; viability, T/C [50]: 59.9% |
